What was measured:
[1] = tested on: nonsense-mediated mRNA decay (NMD); test: NMD reporter (Gl, GPx1) mRNA by RT-qPCR in LIN28A-expressing HeLa cells with CPP-peptides (Fig. 5c); format: cell-based; conditions: FLAG control (no LIN28A) HeLa, CPP-peptide
[2] = tested on: lineage markers in CHA15 cells; test: RNA-seq of CHA15 cells during ectodermal, mesodermal and endodermal differentiation with CPP-peptides (Fig. 7a); format: cell-based, Homo sapiens; conditions: CHA15, 5 days
Protocol: (§1) For CPP-conjugated peptide delivery, HeLa, 293T, and PA-1 cells were incubated with CPP-conjugated peptides or CPP-FITC at 2 μM in DMEM with 10% FBS for 12 h a day before cell harvest. hPSCs were treated with CPP-conjugated peptides at 10 μM in mTeSR Plus Medium, and the peptide-containing medium was changed every day over 10 days. The ROCK inhibitor (Tocris Bioscience, Y-27632) treated-hPSCs were dissociated into single cells using Accutase (Merck, SCR005) and differentiated into ectoderm, mesoderm, and endoderm using the STEMdiff Trilineage Differentiation Kit ([…] Technologies, 05230) following the manufacturer’s protocol. Differentiated cells treated with CPP-conjugated peptides were analysed at 0, 3, and 5 days for ectoderm and endoderm, and at 0, 3, and 4 days for mesoderm.
Total RNA concentration was calculated using Quant-IT RiboGreen (Invitrogen, R11490). […] The libraries were quantified using the KAPA Library Quantification Kits for Illumina Sequencing platforms according to the qPCR Quantification Protocol Guide (KAPA BIOSYSTEMS, KR0405) and qualified using the TapeStation D1000 ScreenTape (Agilent). […]
We pre-processed the raw reads from the sequencer to remove low-quality reads and adapter sequences before analysis and aligned the processed reads to Homo sapiens (GRCh37) using HISAT v2.1.0[52]. […]

UPF1-LIN28A interaction = test: GST pull-down of MYC-UPF1 with GST-LIN28A in presence of CPP-conjugated peptide; format: cell-based; conditions: 293T cells, CPP-peptide 2 μM 12 h, n = 3
Protocol: as §1
Cells were lysed in ice-cold hypotonic buffer (10 mM Tris-Cl pH 7.5, 10 mM NaCl, 10 mM EDTA, 0.5% Triton X 100, Xpert Protease inhibitor cocktail solution, and Xpert Phosphatase inhibitor cocktail solution (GenDEPOT)). […]
Protein samples were loaded for electrophoresis on sodium dodecyl sulphate (SDS) polyacrylamide gels, followed by Coomassie blue staining or transferred to nitrocellulose membranes (Cytiva) for WB. […] The blots were imaged using ChemiDoc XRS+ System (Bio-Rad) and the greyscale intensity values were quantified using Image Lab 3.0 software (Bio-Rad).

| Substance | relative GPx1 mRNA level ([1]; normalised to MUP, replicate set2) | relative Gl mRNA level ([1]; normalised to MUP, replicate set3) | GPx1 mRNA, mean ([1]; mean in t-test output, n = 3) | Gl mRNA, mean ([1]; mean in t-test output, n = 3) | ectodermal marker levels [2] | coimmunoprecipitated MYC-UPF1 with GST-LIN28A (UPF1-LIN28A interaction) |
| --- | --- | --- | --- | --- | --- | --- |
| N-QKLDQKELQLEPM-C [P1, reference compound] | 1.035 | 1.014 | 0.2656 | 0.4223 |  |  |
| KKKWCRKKKSSADEKRYRALKRTAERELLMNA [CPP-P8, CPP conjugated to P8] |  |  |  |  | overall reduced the levels of its marker, in contrast to mesodermal and endodermal differentiation | reduced upon CPP-P8 treatment |

From article PMC10762078, “Role of UPF1-LIN28A interaction during early differentiation of pluripotent stem cells” (Nature Communications, 2024)
